pIC50: −log10 of the molar value. Values belong to the compound of their own block, whether it stands above or below them. Activity calls are given as the source filed them. The rule behind the calls is not given here.
How the values were obtained:
Gerbillinae [1] = test: Compound was tested for inhibition of thumping behavior in gerbils induced by iv administration of SP-methyl ester 2 hours after peroral administration of 30 mg/kg of the compound.; type: functional; conditions: route oral
Substance-K receptor = biological target: T1, Substance-K receptor (Bos taurus, UniProt P05363); test: (§1) Compound was tested for inhibition of [125I]NKA radioligand binding to NK2 receptor from bovine bladder
T1 sequence (P05363 whole entry): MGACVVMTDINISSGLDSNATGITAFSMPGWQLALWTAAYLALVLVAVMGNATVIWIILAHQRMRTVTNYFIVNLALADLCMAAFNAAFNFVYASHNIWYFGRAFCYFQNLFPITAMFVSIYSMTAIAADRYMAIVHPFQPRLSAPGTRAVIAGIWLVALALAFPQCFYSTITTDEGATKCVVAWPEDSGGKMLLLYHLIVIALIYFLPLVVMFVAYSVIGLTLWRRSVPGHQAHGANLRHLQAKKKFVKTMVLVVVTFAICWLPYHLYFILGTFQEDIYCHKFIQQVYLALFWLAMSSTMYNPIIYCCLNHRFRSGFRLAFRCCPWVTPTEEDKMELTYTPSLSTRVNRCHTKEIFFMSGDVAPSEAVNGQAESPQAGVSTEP

U373 MG = test: Compound was tested for inhibition of substance P induced phosphatidyl inositol turnover in human U-373 cells; type: functional, cell-based, U-373MG ATCC
Gerbillinae [2] = test: (§2) Tested for inhibition of thumping behavior in gerbils induced by iv administration of SP-methyl ester 2 hours after peroral administration of 30 mg/kg of the compound; type: functional; conditions: route oral
[3] = biological target: T2, Substance-K receptor (Bos taurus) (UniProt P05363); test: Compound was tested for inhibition of [125I]NKA radioligand binding to NK2 receptor from bovine bladder at 1 uM
T2 sequence (whole entry): T1 sequence (P05363 whole entry)

[4] = biological target: T3, Neuromedin-K receptor (Homo sapiens) (UniProt P29371); conditions: Gerbillinae
T3 sequence (whole entry): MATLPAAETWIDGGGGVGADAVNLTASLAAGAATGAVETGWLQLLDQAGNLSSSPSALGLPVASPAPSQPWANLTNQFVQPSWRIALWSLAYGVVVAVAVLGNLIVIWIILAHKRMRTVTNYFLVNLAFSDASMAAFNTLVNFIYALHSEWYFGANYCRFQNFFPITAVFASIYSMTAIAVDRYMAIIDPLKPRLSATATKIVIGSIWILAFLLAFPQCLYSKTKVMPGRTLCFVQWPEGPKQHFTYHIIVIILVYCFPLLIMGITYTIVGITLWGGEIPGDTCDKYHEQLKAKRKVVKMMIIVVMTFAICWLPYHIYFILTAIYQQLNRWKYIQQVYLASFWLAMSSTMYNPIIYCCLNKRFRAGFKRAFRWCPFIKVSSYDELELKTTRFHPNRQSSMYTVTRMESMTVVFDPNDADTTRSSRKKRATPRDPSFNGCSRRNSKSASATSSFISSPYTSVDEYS

Neuromedin-K receptor = biological target: T4, Neuromedin-K receptor (Homo sapiens, UniProt P29371); test: Compound was tested for inhibition of [125I]eledoisin radioligand binding to NK3 receptor from gerbil cortex; NA means no activity; set-up: species or system Gerbillinae
T4 sequence (P29371 whole entry): T3 sequence (whole entry)

[5] = biological target: T2, Substance-K receptor (Bos taurus); test: as §1; conditions: concentration not given here
Gerbillinae [6] = test: as §2; type: functional, organism-based; set-up: dose 30 mg/kg, route oral
Gerbillinae [7] = test: Tested for inhibition of thumping behavior in gerbils induced by iv administration of SP-methyl ester 2 hours after intraperitoneal administration of 60 mg/kg of the compound; type: functional

Compound: COc1ccccc1CN[C@H]1C2CCN(CC2)[C@H]1C(c1ccccc1)c1ccccc1 [CP-96345]
inhibition in vivo at 30 mg/kg (Gerbillinae [2]): 61%
inhibition [3]: 24%
IC50 (Neuromedin-K receptor): Not Active
pIC50 (U373 MG): 8.05

Compound: Cc1cc(C)cc(C(=O)N2CC[C@H](NCc3cnc4ccccc4c3)C[C@H]2Cc2ccccc2)c1
inhibition (Gerbillinae [6]): 21%
inhibition [5]: 22%
pIC50 (U373 MG): 6.68

Compound: Cc1cc(C)cc(C(=O)N2CC[C@@H](NCc3ccnc4ccccc34)C[C@H]2Cc2ccccc2)c1
inhibition in vivo at 60 mg/kg (Gerbillinae [7]): 20%

Further lines, with some results ahead:

pIC50 (Substance-K receptor): 5.35
pIC50 (U373 MG): 7.62
Compound: O=C(N[C@H]1CCN(C(=O)c2cc(Cl)cc(Cl)c2)[C@H](Cc2ccccc2)C1)c1ccnc2ccccc12
inhibition in vivo at 30 mg/kg (Gerbillinae [1]): 66%

inhibition [3]: 5%
NA [4]: inactive
pIC50 (U373 MG): 6.82
Compound: Cc1cc(C)cc(C(=O)N2CC[C@@H](NCc3ccnc4ccccc34)C[C@@H]2Cc2ccccc2)c1
inhibition in vivo at 30 mg/kg (Gerbillinae [2]): 54%

pIC50 (Substance-K receptor): 5.55
pIC50 (U373 MG): 7.92
Compound: Cc1cc(C)cc(C(=O)N2CC[C@H](NCc3ccnc4ccccc34)C[C@H]2Cc2ccccc2)c1
inhibition in vivo at 30 mg/kg (Gerbillinae [2]): 34%

inhibition [5]: 28%
Compound: O=C(N[C@H]1CCN(C(=O)c2cc(C(F)(F)F)cc(C(F)(F)F)c2)[C@H](Cc2ccccc2)C1)c1cc(O)nc2ccccc12
inhibition in vivo at 30 mg/kg (Gerbillinae [1]): 24%
